Results from ChEMBL document CHEMBL4507305, “Data for DCP probe TP-024” (2021).

Legend:
[1] = test system: Tyrosine-protein kinase ABL1 (Homo sapiens), P00519 [Y253F]; settings: Compound concentration 1000.0 nM
[2] = target: Tyrosine-protein kinase ABL1 (Homo sapiens) (UniProt P00519); settings: Compound concentration 1000.0 nM
[3] = target: Activin receptor type-1B (Homo sapiens) (UniProt P36896); settings: Compound concentration 1000.0 nM
[4] = target: Tyrosine-protein kinase BTK (Homo sapiens) (UniProt Q06187); settings: Compound concentration 1000.0 nM
[5] = target: Mitotic checkpoint serine/threonine-protein kinase BUB1 (Homo sapiens) (UniProt O43683); settings: Compound concentration 1000.0 nM
[6] = target: Calcium/calmodulin-dependent protein kinase type 1D (Homo sapiens) (UniProt Q8IU85); settings: Compound concentration 1000.0 nM
[7] = target: Cyclin-dependent kinase-like 1 (Homo sapiens) (UniProt Q00532); settings: Compound concentration 1000.0 nM
[8] = target: Cyclin-dependent kinase-like 3 (Homo sapiens) (UniProt Q8IVW4); settings: Compound concentration 1000.0 nM
[9] = target: Casein kinase I isoform gamma-1 (Homo sapiens) (UniProt Q9HCP0); settings: Compound concentration 1000.0 nM
Sequence of Casein kinase I isoform gamma-1 (Homo sapiens) (Q9HCP0 whole entry, looked up, canonical isoform): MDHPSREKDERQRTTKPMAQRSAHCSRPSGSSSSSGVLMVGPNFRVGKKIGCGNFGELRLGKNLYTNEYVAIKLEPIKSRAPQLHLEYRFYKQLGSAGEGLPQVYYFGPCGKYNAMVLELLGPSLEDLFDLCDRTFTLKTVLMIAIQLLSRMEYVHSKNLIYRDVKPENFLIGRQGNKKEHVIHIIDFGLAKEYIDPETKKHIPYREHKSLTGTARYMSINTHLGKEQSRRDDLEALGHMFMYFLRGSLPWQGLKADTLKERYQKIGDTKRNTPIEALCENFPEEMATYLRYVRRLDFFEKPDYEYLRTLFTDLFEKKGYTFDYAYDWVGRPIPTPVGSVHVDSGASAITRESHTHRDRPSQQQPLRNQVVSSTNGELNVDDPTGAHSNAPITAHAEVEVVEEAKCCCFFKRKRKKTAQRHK

[10] = target: Casein kinase II subunit alpha' (Homo sapiens) (UniProt P19784); settings: Compound concentration 1000.0 nM
[11] = target: Serine/threonine-protein kinase 17B (Homo sapiens) (UniProt O94768); settings: Compound concentration 1000.0 nM
[12] = target: Eukaryotic translation initiation factor 2-alpha kinase 1 (Homo sapiens) (UniProt Q9BQI3); settings: Compound concentration 1000.0 nM
[13] = target: Ephrin type-B receptor 1 (Homo sapiens) (UniProt P54762); settings: Compound concentration 1000.0 nM
Sequence of Ephrin type-B receptor 1 (Homo sapiens) (P54762 whole entry): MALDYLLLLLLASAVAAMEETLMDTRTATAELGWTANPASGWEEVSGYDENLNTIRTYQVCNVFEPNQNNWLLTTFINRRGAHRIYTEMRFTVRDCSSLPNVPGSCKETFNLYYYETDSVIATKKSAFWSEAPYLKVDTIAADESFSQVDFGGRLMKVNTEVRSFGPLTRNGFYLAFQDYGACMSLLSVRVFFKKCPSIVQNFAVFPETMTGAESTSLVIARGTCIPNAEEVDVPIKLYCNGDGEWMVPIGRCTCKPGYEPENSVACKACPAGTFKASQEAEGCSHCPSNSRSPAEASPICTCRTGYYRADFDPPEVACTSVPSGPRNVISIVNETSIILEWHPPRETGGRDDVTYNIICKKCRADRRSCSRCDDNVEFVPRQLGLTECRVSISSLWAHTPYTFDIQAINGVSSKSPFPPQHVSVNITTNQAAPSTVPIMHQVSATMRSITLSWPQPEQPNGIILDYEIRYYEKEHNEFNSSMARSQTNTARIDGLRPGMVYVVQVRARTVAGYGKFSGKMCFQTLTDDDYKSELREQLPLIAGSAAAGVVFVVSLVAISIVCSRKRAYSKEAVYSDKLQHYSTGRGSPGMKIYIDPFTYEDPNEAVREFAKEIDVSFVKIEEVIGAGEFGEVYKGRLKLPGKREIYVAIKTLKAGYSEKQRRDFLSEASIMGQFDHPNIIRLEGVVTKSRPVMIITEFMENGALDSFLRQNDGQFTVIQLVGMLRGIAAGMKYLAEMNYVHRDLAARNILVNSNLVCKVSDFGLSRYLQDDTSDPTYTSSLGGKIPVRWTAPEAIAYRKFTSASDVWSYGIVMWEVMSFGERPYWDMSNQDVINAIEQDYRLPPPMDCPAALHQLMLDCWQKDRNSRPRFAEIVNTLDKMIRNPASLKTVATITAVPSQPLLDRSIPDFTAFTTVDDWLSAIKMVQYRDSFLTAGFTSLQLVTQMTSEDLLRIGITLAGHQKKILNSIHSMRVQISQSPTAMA

[14] = target: Receptor tyrosine-protein kinase erbB-2 (Homo sapiens) (UniProt P04626); settings: Compound concentration 1000.0 nM
[15] = target: Mitogen-activated protein kinase 7 (Homo sapiens) (UniProt Q13164); settings: Compound concentration 1000.0 nM
[16] = target: Serine/threonine-protein kinase/endoribonuclease IRE1 (Homo sapiens) (UniProt O75460); settings: Compound concentration 1000.0 nM
[17] = target: Tyrosine-protein kinase Fgr (Homo sapiens) (UniProt P09769); settings: Compound concentration 1000.0 nM
[18] = target: Receptor-type tyrosine-protein kinase FLT3 (Homo sapiens) (UniProt P36888); settings: Compound concentration 1000.0 nM
[19] = test system: Receptor-type tyrosine-protein kinase FLT3 (Homo sapiens), P36888 [D835H]; settings: Compound concentration 1000.0 nM
[20] = target: Beta-adrenergic receptor kinase 1 (Homo sapiens) (UniProt P25098); settings: Compound concentration 1000.0 nM
[21] = target: G protein-coupled receptor kinase 4 (Homo sapiens) (UniProt P32298); settings: Compound concentration 1000.0 nM
[22] = target: Tyrosine-protein kinase HCK (Homo sapiens) (UniProt P08631); settings: Compound concentration 1000.0 nM
[23] = target: Interleukin-1 receptor-associated kinase 4 (Homo sapiens) (UniProt Q9NWZ3); settings: Compound concentration 1000.0 nM
[24] = target: Mitogen-activated protein kinase 10 (Homo sapiens) (UniProt P53779); settings: Compound concentration 1000.0 nM
[25] = target: Serine/threonine-protein kinase LATS2 (Homo sapiens) (UniProt Q9NRM7); settings: Compound concentration 1000.0 nM
[26] = target: Mitogen-activated protein kinase kinase kinase 4 (Homo sapiens) (UniProt Q9Y6R4); settings: Compound concentration 1000.0 nM
[27] = target: Dual specificity mitogen-activated protein kinase kinase 4 (Homo sapiens) (UniProt P45985); settings: Compound concentration 1000.0 nM
Sequence of Dual specificity mitogen-activated protein kinase kinase 4 (Homo sapiens) (P45985 whole entry): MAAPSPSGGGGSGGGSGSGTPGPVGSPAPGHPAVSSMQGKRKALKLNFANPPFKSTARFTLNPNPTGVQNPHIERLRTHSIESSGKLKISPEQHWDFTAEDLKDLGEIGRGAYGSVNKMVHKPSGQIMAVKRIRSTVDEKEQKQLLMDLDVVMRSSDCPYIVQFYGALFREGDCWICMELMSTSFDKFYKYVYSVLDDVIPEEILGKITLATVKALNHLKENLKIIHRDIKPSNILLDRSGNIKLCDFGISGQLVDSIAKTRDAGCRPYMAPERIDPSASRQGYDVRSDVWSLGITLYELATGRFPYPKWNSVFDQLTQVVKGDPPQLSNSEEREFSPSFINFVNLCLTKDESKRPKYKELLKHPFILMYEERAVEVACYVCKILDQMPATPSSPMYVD

[28] = target: Tyrosine-protein kinase Mer (Homo sapiens) (UniProt Q12866); settings: Compound concentration 1000.0 nM
Sequence of Tyrosine-protein kinase Mer (Homo sapiens) (Q12866 whole entry): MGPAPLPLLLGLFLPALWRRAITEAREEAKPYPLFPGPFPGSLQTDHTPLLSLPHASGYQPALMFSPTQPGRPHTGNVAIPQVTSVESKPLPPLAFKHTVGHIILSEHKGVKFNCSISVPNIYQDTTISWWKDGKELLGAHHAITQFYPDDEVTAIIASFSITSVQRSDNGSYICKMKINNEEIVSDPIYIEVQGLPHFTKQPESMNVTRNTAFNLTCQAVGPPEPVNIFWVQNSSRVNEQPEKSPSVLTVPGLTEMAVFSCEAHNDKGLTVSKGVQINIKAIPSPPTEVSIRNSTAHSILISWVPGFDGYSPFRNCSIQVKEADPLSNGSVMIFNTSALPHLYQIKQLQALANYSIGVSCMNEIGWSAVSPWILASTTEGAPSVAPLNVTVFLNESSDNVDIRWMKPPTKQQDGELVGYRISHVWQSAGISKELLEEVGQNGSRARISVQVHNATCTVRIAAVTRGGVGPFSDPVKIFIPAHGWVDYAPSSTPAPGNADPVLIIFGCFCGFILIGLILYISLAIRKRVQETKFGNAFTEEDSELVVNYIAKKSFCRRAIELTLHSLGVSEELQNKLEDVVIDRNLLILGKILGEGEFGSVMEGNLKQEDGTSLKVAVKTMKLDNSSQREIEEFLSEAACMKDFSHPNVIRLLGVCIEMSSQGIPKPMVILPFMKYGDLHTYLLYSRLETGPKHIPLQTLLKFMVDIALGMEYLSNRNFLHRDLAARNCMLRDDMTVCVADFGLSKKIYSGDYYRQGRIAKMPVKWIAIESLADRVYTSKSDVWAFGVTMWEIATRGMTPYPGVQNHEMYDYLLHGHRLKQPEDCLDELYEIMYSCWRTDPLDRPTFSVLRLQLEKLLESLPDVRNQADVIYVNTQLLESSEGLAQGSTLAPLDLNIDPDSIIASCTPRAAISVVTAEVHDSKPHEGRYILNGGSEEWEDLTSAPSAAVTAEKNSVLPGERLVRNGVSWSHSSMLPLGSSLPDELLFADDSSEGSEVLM

[29] = target: Myosin light chain kinase, smooth muscle (Homo sapiens) (UniProt Q15746); settings: Compound concentration 1000.0 nM
[30] = target: Myosin light chain kinase 2, skeletal/cardiac muscle (Homo sapiens) (UniProt Q9H1R3); settings: Compound concentration 1000.0 nM
[31] = target: Phosphatidylinositol 4-phosphate 3-kinase C2 domain-containing subunit beta (Homo sapiens) (UniProt O00750); settings: Compound concentration 1000.0 nM
[32] = test system: Phosphatidylinositol 4,5-bisphosphate 3-kinase catalytic subunit alpha isoform (Homo sapiens), P42336 [E542K]; settings: Compound concentration 1000.0 nM
[33] = target: Phosphatidylinositol 4,5-bisphosphate 3-kinase catalytic subunit beta isoform (Homo sapiens) (UniProt P42338); settings: Compound concentration 1000.0 nM
Sequence of Phosphatidylinositol 4,5-bisphosphate 3-kinase catalytic subunit beta isoform (Homo sapiens) (P42338 whole entry, looked up, canonical isoform): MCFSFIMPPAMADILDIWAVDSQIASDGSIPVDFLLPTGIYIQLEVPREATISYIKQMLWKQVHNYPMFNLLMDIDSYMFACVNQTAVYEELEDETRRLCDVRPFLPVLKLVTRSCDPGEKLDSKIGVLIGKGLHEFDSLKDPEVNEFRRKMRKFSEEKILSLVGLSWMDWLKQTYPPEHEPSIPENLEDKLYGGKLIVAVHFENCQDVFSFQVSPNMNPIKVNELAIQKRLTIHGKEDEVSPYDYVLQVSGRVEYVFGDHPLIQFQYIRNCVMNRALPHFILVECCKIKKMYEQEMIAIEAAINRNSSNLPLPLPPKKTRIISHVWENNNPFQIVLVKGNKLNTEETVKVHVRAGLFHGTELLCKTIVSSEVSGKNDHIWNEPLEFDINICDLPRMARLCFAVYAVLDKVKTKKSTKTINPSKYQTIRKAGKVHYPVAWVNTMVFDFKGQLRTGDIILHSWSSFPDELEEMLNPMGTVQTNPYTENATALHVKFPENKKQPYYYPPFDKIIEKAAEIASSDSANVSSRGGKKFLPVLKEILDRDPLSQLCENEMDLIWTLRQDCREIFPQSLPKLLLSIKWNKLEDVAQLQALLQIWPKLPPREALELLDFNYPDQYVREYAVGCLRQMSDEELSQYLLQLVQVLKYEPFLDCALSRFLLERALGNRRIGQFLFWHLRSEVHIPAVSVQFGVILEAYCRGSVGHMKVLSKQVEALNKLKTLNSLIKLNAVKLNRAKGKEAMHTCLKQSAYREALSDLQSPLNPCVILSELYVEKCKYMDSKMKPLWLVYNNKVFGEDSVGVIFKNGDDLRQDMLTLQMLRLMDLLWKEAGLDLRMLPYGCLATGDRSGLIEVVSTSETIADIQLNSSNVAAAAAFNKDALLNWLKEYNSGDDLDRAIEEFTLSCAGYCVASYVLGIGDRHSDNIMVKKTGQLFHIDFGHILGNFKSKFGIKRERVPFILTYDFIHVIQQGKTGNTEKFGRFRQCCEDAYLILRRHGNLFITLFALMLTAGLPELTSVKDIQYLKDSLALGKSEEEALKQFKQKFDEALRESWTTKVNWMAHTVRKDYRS

[34] = target: cAMP-dependent protein kinase catalytic subunit PRKX (Homo sapiens) (UniProt P51817); settings: Compound concentration 1000.0 nM
[35] = target: Ribosomal protein S6 kinase alpha-6 (Homo sapiens) (UniProt Q9UK32); settings: Compound concentration 1000.0 nM
[36] = target: SNF-related serine/threonine-protein kinase (Homo sapiens) (UniProt Q9NRH2); settings: Compound concentration 1000.0 nM
[37] = target: Serine/threonine-protein kinase 36 (Homo sapiens) (UniProt Q9NRP7); settings: Compound concentration 1000.0 nM
[38] = target: Serine/threonine-protein kinase TAO3 (Homo sapiens) (UniProt Q9H2K8); settings: Compound concentration 1000.0 nM
[39] = target: Serine/threonine-protein kinase tousled-like 2 (Homo sapiens) (UniProt Q86UE8); settings: Compound concentration 1000.0 nM
[40] = target: NT-3 growth factor receptor (Homo sapiens) (UniProt Q16288); settings: Compound concentration 1000.0 nM
[41] = target: Serine/threonine-protein kinase WNK2 (Homo sapiens) (UniProt Q9Y3S1); settings: Compound concentration 1000.0 nM
[42] = target: 5-hydroxytryptamine receptor 3A (Homo sapiens) (UniProt P46098); settings: Compound concentration 10.0 uM
Sequence of 5-hydroxytryptamine receptor 3A (Homo sapiens) (P46098 whole entry): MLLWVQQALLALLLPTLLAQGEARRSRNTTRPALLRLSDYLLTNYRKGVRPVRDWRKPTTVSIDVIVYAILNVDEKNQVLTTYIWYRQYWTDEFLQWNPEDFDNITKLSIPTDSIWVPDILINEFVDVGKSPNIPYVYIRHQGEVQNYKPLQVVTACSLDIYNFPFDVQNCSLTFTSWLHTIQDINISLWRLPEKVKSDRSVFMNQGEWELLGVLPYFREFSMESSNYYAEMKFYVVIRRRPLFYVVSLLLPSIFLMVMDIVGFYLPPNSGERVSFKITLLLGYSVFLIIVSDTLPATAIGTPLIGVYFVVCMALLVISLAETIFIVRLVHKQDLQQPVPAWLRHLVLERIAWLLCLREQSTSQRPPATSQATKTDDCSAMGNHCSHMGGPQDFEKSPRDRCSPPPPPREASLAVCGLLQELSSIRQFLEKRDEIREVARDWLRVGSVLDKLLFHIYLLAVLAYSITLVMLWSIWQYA

[43] = target: Histamine H2 receptor (Homo sapiens) (UniProt P25021); settings: Compound concentration 10.0 uM
[44] = target: Histamine H4 receptor (Homo sapiens) (UniProt Q9H3N8); settings: Compound concentration 10.0 uM
[45] = target: Muscarinic acetylcholine receptor M4 (Homo sapiens) (UniProt P08173); settings: Compound concentration 10.0 uM

Sequence of Activin receptor type-1B (Homo sapiens) (P36896 whole entry): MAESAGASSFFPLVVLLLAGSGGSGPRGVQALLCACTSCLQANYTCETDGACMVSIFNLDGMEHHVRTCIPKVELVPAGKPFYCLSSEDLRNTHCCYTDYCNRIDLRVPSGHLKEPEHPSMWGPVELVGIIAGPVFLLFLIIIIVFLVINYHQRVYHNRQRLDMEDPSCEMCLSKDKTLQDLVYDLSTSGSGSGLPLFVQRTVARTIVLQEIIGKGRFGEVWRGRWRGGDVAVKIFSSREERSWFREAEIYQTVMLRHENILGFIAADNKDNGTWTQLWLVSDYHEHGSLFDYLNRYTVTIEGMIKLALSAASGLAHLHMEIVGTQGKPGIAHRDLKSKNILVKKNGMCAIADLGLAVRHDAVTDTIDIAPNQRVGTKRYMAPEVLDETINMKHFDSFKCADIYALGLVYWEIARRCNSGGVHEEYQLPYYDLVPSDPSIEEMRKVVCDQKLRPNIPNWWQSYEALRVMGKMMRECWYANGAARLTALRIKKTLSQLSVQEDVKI

Cc1cc(-n2nc(Cc3cc(F)cc(C(F)(F)F)c3)nc2C)ccc1C(N)=O [TP-024]
inactive: residual activity [1] 90% | residual activity [2] 100% | residual activity [3] 93% | residual activity [4] 100% | residual activity [5] 100% | residual activity [6] 96% | residual activity [7] 71% | residual activity [8] 83% | residual activity [9] 100% | residual activity [10] 91% | residual activity [11] 81% | residual activity [12] 100% | residual activity [13] 97% | residual activity [14] 99% | residual activity [15] 100% | residual activity [16] 100% | residual activity [17] 94% | residual activity [18] 100% | residual activity [19] 100% | residual activity [20] 100% | residual activity [21] 100% | residual activity [22] 100% | residual activity [23] 100% | residual activity [24] 100% | residual activity [25] 100% | residual activity [26] 98% | residual activity [27] 100% | residual activity [28] 100% | residual activity [29] 100% | residual activity [30] 91% | residual activity [31] 87% | residual activity [32] 73% | residual activity [33] 85% | residual activity [34] 100% | residual activity [35] 89% | residual activity [36] 100% | residual activity [37] 100% | residual activity [38] 83% | residual activity [39] 100% | residual activity [40] 94% | residual activity [41] 100% | inhibition [42] 5.45% | inhibition [43] 6.28% | inhibition [44] 1.73% | inhibition [45] 6.9%

Cc1nc(Cc2cccc(C(F)(F)F)c2)sc1-c1ccc(C(N)=O)nc1 [TP-024n]
inactive: residual activity [1] 88% | residual activity [2] 98% | residual activity [3] 75% | residual activity [4] 100% | residual activity [5] 100% | residual activity [6] 94% | residual activity [7] 85% | residual activity [8] 100% | residual activity [9] 97% | residual activity [10] 96% | residual activity [11] 79% | residual activity [12] 100% | residual activity [13] 100% | residual activity [14] 100% | residual activity [15] 88% | residual activity [16] 100% | residual activity [17] 100% | residual activity [18] 87% | residual activity [19] 100% | residual activity [20] 100% | residual activity [21] 100% | residual activity [22] 100% | residual activity [23] 100% | residual activity [24] 100% | residual activity [25] 90% | residual activity [26] 72% | residual activity [27] 100% | residual activity [28] 98% | residual activity [29] 95% | residual activity [30] 77% | residual activity [31] 82% | residual activity [32] 66% | residual activity [33] 83% | residual activity [34] 100% | residual activity [35] 91% | residual activity [36] 84% | residual activity [37] 100% | residual activity [38] 83% | residual activity [39] 82% | residual activity [40] 69% | residual activity [41] 100% | inhibition [42] 4.72% | inhibition [43] 6.05% | inhibition [44] 7.74% | inhibition [45] 2.94%
